Converted amounts (≈) assume the structure as drawn. Where two headings read alike, the source gives them in different places. Blank lines part the entries; values can stand above or below the molecule they belong to. Non-standard residues stand in square brackets, D forms with d. Residues, ends and D or L forms follow the SMILES beside them. *: point of attachment. Pentanoyl(5-NH-cholesteryl) = CC(C)CCC[C@@H](C)[C@H]1CC[C@H]2[C@@H]3CC=C4C[C@@H](NCCCCC(=O)*)CC[C@]4(C)[C@H]3CC[C@]12C; Aib = CC(C)(N)C(=O)O; Ahx = NCCCCCC(=O)O; βAla = NCCC(=O)O
What was measured:
[1] = system: endosomes of Jurkat lymphocytes; assay: Endosome disruption in Jurkat lymphocytes: release of carboxyfluorescein from disulfide probe Compound 2, flow cytometry; conditions: for Efficacy (% of max. 1): % change in cellular fluorescence relative to maximal response of Compound 1 (100%); for Efficacy (% of max. 1) / Efficacy (% of 1): Jurkat; for Efficacy (% of 1): % of the effect of compound 1, calculated span of dose-response curve, ± standard deviation; for Endosome disruption activity (in words): Jurkat endosome disruption assay
Experimental: (§1) The effects of the compounds of the invention on human Juikat leukemia cells were evaluated using flow cytometry-based assays of potency, efficacy, and toxicity. […] Analysis of flow cytometry data by non-linear regression was used to determine IC50 values for potency with the efficacy expressed as a percentage. […] Dose-dependent effects on cellular viability after 48 h at 37° C. in culture were also measured by flow cytometry.
(§2) The # represents the compound number in accordance with Tables A, B, and C. Concentrations of compound stock solutions were determined by absorbance measurements at 280 nm. Efficacy was determined as % change in cellular fluorescence relative to the maximal response of Compound 1, defined as 100%. Potencies and efficacies in Jurkat lymphocytes were measured by flow cytometry after treatment of cells with the compounds listed and the fluorescent probe Compound 2 (2.5 μM) for 14 hours. Toxicity to this cell line was determined by flow cytometry analysis of light scattering and counterstaining with PI after treatment for 48 h at 37° C. in culture. […] N.D., not determined.
Cells were treated with fluorescent molecular probe Compound 2 (2.5 μM) and endosome disruptors for 14 hours at 37° C. Enhanced cellular fluorescence resulting from release of the pH-sensitive fluorophore Compound 3 into the cytoplasm was quantified by flow cytometry.
Natural amino acids are represented by single letter codes. Codes for non-standard elements are as follows: Ch1: (3β-Cholest-5-en-3-yl-ammonio)pentanoyl; Ch2: (Cholester-3-yl)oxy-βAla-βAla; X: ε-Ahx; U: Aib; PB: Pacific Blue fluorophore. O: 3-(2-(2-(2-aminoethoxy)ethoxy)ethoxy)propanyl.

Jurkat lymphocytes = conditions: 48 h
Experimental: as §1, §2

[2] = Thermodynamic solubility in PBS (pH 7.4); assay type: physicochemical; conditions: phosphate buffered saline
From the text: Values in parentheses represent 95% confidence intervals. N.D., not determined.
Measurements represent duplicate or more replicates, with active peptides subjected to multiple replicates. ND: not determined. The peptide was non-toxic and soluble in cell culture medium at this concentration.

[3] = pH 7.4, Table 3, PBS pH 7.4, 24 h at 22° C., read-out: Solubility
[4] = read-out: Potency, Table 2, EC50 ± standard deviation, Jurkat lymphocytes, disulfide-linked fluorescent probe (2.5 μM), 14 h

Molecule: CC(C)CCC[C@@H](C)[C@H]1CC[C@H]2[C@@H]3CC=C4C[C@@H](NCCCCC(=O)NCCC(=O)N[C@@H](CCC(=O)O)C(=O)N[C@@H](CCC(=O)O)C(=O)NCCCCCC(=O)N[C@@H](C)C(=O)N[C@@H](C)C(=O)N[C@@H](C)C(=O)N[C@@H](Cc5c[nH]c6ccccc56)C(=O)N[C@@H](Cc5c[nH]c6ccccc56)C(=O)N[C@@H](C)C(=O)N[C@@H](Cc5ccc(O)cc5)C(=O)N[C@@H](Cc5c[nH]c6ccccc56)C(=O)N5CCC[C@H]5C(=O)N5CCC[C@H]5C(=O)N[C@H](C(=O)N[C@@H](C)C(N)=O)C(C)C)CC[C@]4(C)[C@H]3CC[C@]12C [Compound 7, R = BEEXAAAWWAYWPPVA-CONH2] ({Pentanoyl(5-NH-cholesteryl)-βAla}-EE[Ahx]AAAWWAYWPPVA-NH2)
EC50 ([1]; 14 h): 1 µM | IC50 (Jurkat lymphocytes): 16 µM

Molecule: CC(C)CCC[C@@H](C)[C@H]1CC[C@H]2[C@@H]3CC=C4C[C@@H](NCCCCC(=O)NCCC(=O)N[C@@H](CCC(=O)O)C(=O)N[C@@H](CCC(=O)O)C(=O)NCCCCCC(=O)NCCCCCC(=O)N[C@@H](C)C(=O)N[C@@H](C)C(=O)N[C@@H](C)C(=O)N[C@@H](Cc5c[nH]c6ccccc56)C(=O)N[C@@H](Cc5c[nH]c6ccccc56)C(=O)N[C@@H](C)C(=O)N[C@@H](Cc5ccc(O)cc5)C(=O)N[C@@H](Cc5c[nH]c6ccccc56)C(=O)N5CCC[C@H]5C(=O)N5CCC[C@H]5C(=O)N[C@H](C(=O)N[C@@H](C)C(N)=O)C(C)C)CC[C@]4(C)[C@H]3CC[C@]12C [Compound 8, R = BEEXXAAAWWAYWPPVA-CONH2] ({Pentanoyl(5-NH-cholesteryl)-βAla}-EE[Ahx][Ahx]AAAWWAYWPPVA-NH2)
EC50 ([1]; 14 h): 0.4 µM | IC50 (Jurkat lymphocytes): 9 µM

Molecule: CC(C)CCC[C@@H](C)[C@H]1CC[C@H]2[C@@H]3CC=C4C[C@@H](NCCCCC(=O)NCCC(=O)N[C@@H](CCC(=O)O)C(=O)N[C@@H](CCC(=O)O)C(=O)NCCCCCC(=O)NC(C)(C)C(=O)NC(C)(C)C(=O)N[C@@H](Cc5c[nH]c6ccccc56)C(=O)N[C@@H](Cc5c[nH]c6ccccc56)C(=O)N[C@@H](C)C(=O)N[C@@H](Cc5ccc(O)cc5)C(=O)N[C@@H](Cc5c[nH]c6ccccc56)C(=O)N5CCC[C@H]5C(=O)N5CCC[C@H]5C(=O)N[C@H](C(=O)N[C@@H](C)C(N)=O)C(C)C)CC[C@]4(C)[C@H]3CC[C@]12C [Compound 10, R = BEEXUUWWAYWPPVA-CONH2] ({Pentanoyl(5-NH-cholesteryl)-βAla}-EE[Ahx][Aib][Aib]WWAYWPPVA-NH2)
EC50 ([1]; 14 h): 0.9 µM | IC50 (Jurkat lymphocytes): 15 µM

Molecule: CC(C)CCC[C@@H](C)[C@H]1CC[C@H]2[C@@H]3CC=C4C[C@@H](NCCCCC(=O)NCCC(=O)N[C@@H](CCC(=O)O)C(=O)N[C@@H](CCC(=O)O)C(=O)NCCCCCC(=O)NC(C)(C)C(=O)NC(C)(C)C(=O)NC(C)(C)C(=O)N[C@@H](Cc5c[nH]c6ccccc56)C(=O)N[C@@H](Cc5c[nH]c6ccccc56)C(=O)N[C@@H](C)C(=O)N[C@@H](Cc5ccc(O)cc5)C(=O)N[C@@H](Cc5c[nH]c6ccccc56)C(=O)N5CCC[C@H]5C(=O)N5CCC[C@H]5C(=O)N[C@H](C(N)=O)C(C)C)CC[C@]4(C)[C@H]3CC[C@]12C [Compound 11, R = BEEXUUUWWAYWPPV-CONH2] ({Pentanoyl(5-NH-cholesteryl)-βAla}-EE[Ahx][Aib][Aib][Aib]WWAYWPPV-NH2)
EC50 ([1]; 14 h): 0.8 µM | IC50 (Jurkat lymphocytes): 15 µM

Molecule: CC(C)CCC[C@@H](C)[C@H]1CC[C@H]2[C@@H]3CC=C4C[C@@H](NCCCCC(=O)NCCC(=O)N[C@@H](CCC(=O)O)C(=O)N[C@@H](CCC(=O)O)C(=O)NCCCCCC(=O)NC(C)(C)C(=O)NC(C)(C)C(=O)NC(C)(C)C(=O)N[C@@H](C)C(=O)N[C@@H](Cc5c[nH]c6ccccc56)C(=O)N[C@@H](C)C(=O)N[C@@H](Cc5ccc(O)cc5)C(=O)N[C@@H](Cc5c[nH]c6ccccc56)C(=O)N5CCC[C@H]5C(=O)N5CCC[C@H]5C(=O)N[C@H](C(=O)N[C@@H](C)C(N)=O)C(C)C)CC[C@]4(C)[C@H]3CC[C@]12C [Compound 12, R = BEEXUUUAWAYWPPVA-CONH2] ({Pentanoyl(5-NH-cholesteryl)-βAla}-EE[Ahx][Aib][Aib][Aib]AWAYWPPVA-NH2)
EC50 ([1]; 14 h): 0.4 µM | IC50 (Jurkat lymphocytes): 14 µM

Molecule: CC(C)CCC[C@@H](C)[C@H]1CC[C@H]2[C@@H]3CC=C4C[C@@H](NCCCCC(=O)NCCC(=O)N[C@@H](CCC(=O)O)C(=O)N[C@@H](CCC(=O)O)C(=O)NCCCCCC(=O)NC(C)(C)C(=O)NC(C)(C)C(=O)NC(C)(C)C(=O)N[C@@H](Cc5c[nH]c6ccccc56)C(=O)N[C@@H](C)C(=O)N[C@@H](C)C(=O)N[C@@H](Cc5ccc(O)cc5)C(=O)N[C@@H](Cc5c[nH]c6ccccc56)C(=O)N5CCC[C@H]5C(=O)N5CCC[C@H]5C(=O)N[C@H](C(=O)N[C@@H](C)C(N)=O)C(C)C)CC[C@]4(C)[C@H]3CC[C@]12C [Compound 13, R = BEEXUUUWAAYWPPVA-CONH2] ({Pentanoyl(5-NH-cholesteryl)-βAla}-EE[Ahx][Aib][Aib][Aib]WAAYWPPVA-NH2)
EC50 ([1]; 14 h): 0.7 µM | IC50 (Jurkat lymphocytes): 16 µM

Molecule: CC(C)[C@H](NC(=O)[C@@H](NC(=O)[C@@H]1CCCN1C(=O)[C@H](C)NC(=O)[C@H](Cc1c[nH]c2ccccc12)NC(=O)[C@H](Cc1ccc(O)cc1)NC(=O)[C@H](C)NC(=O)[C@H](Cc1c[nH]c2ccccc12)NC(=O)[C@H](Cc1c[nH]c2ccccc12)NC(=O)C(C)(C)NC(=O)C(C)(C)NC(=O)C(C)(C)NC(=O)C(C)(C)N)C(C)C)C(N)=O [Compound 49] (H-[Aib][Aib][Aib][Aib]WWAYWAPVV-NH2)
Efficacy (% of max. 1) ([1]; Table 1, 14 hours): 45% | Efficacy (% of 1) ([1]; Table 2, 14 h): 35 ± 2% | EC50 ([1]; read-out: Potency (EC50), Table 1, Jurkat lymphocytes, probe Compound 2 (2.5 μM), 14 hours, 95% confidence interval in neighbouring cell): 12 µM | solubility thermodynamic at 24 h [2, 3]: 21 ± 2 µM (≈ 31.9 µg/mL)

Molecule: CC(C)[C@H](NC(=O)[C@@H](NC(=O)[C@H](C)NC(=O)[C@@H]1CCCN1C(=O)[C@H](Cc1c[nH]c2ccccc12)NC(=O)[C@H](Cc1ccc(O)cc1)NC(=O)[C@H](C)NC(=O)[C@H](Cc1c[nH]c2ccccc12)NC(=O)[C@H](Cc1c[nH]c2ccccc12)NC(=O)C(C)(C)NC(=O)C(C)(C)NC(=O)C(C)(C)NC(=O)C(C)(C)N)C(C)C)C(N)=O [Compound 50] (H-[Aib][Aib][Aib][Aib]WWAYWPAVV-NH2)
Endosome disruption activity (in words) [1]: substantial activity | Efficacy (% of max. 1) ([1]; Table 1, 14 hours): 71% | Efficacy (% of 1) ([1]; Table 2, 14 h): 54 ± 3% | EC50 [1, 4]: 9 ± 3 µM | solubility thermodynamic at 24 h [2, 3]: 22 ± 2 µM (≈ 33.4 µg/mL)

EC50 [1, 4]: > 15 µM | solubility thermodynamic at 24 h [2, 3]: 48 ± 3 µM (≈ 72.7 µg/mL)
Molecule: CC(C)[C@H](NC(=O)[C@H](C)NC(=O)[C@@H]1CCCN1C(=O)[C@@H]1CCCN1C(=O)[C@H](Cc1c[nH]c2ccccc12)NC(=O)[C@H](Cc1ccc(O)cc1)NC(=O)[C@H](C)NC(=O)[C@H](Cc1c[nH]c2ccccc12)NC(=O)[C@H](Cc1c[nH]c2ccccc12)NC(=O)C(C)(C)NC(=O)C(C)(C)NC(=O)C(C)(C)NC(=O)C(C)(C)N)C(N)=O [Compound 51] (H-[Aib][Aib][Aib][Aib]WWAYWPPAV-NH2)
Efficacy (% of max. 1) ([1]; Table 1, 14 hours): <50%

EC50 [1, 4]: > 15 µM | solubility thermodynamic at 24 h [2, 3]: 41 ± 2 µM
Molecule: Ac-AAAWWAYWPPVA-NH2 [Compound 40]
Efficacy (% of max. 1) ([1]; Table 1, 14 hours): <<50%

solubility thermodynamic at 24 h ([2]; pH 7.4, Table 1, PBS pH 7.4, 24 hours at 22° C., ±S.D., read-out: Solubility (aq.)): 173 ± 11 µM | solubility thermodynamic at 24 h [2, 3]: 137 ± 8 µM
Molecule: Ac-SSAWWSYWPPVA-NH2 [Compound 39, reference compound]
Endosome disruption activity (in words) [1]: devoid of biological activity | Efficacy (% of max. 1) ([1]; Table 1, 14 hours): <<50% | Efficacy (% of 1) ([1]; Table 2, 14 h): <2%
